Experimental data: PMC11124822, “Discovery and Anticancer Screening of Novel Oxindole-Based Derivative Bearing Pyridyl Group as Potent and Selective Dual FLT3/CDK2 Kinase Inhibitor” (Pharmaceuticals, 2024)

Columns and labels:
COLO 205 = experiment: NCI-60 antiproliferative screen (SRB); type: cell-based, human; conditions: Homo sapiens; 10 µM single dose, 48 h; COLO 205 (Colon); read-out: Growth inhibition (%)
MDA-MB-435 = experiment: NCI-60 antiproliferative screen (SRB); type: cell-based, human; conditions: Homo sapiens; 10 µM single dose, 48 h; MDA-MB-435 (Melanoma); read-out: Growth inhibition (%)
NCI-H460 = experiment: NCI-60 antiproliferative screen (SRB); type: cell-based, human; conditions: Homo sapiens; 10 µM single dose, 48 h; NCI-H460 (NSCLC); read-out: Growth inhibition (%)
T-47D = experiment: NCI-60 antiproliferative screen (SRB); type: cell-based, human; conditions: Homo sapiens, T47D; 10 µM single dose, 48 h; T-47D (Breast); read-out: Growth inhibition (%)
EKVX = experiment: NCI-60 antiproliferative screen (SRB); type: cell-based, human; conditions: Homo sapiens; 10 µM single dose, 48 h; EKVX (NSCLC); read-out: Growth inhibition (%)
786-0 = experiment: NCI-60 antiproliferative screen (SRB); type: cell-based, human; conditions: Homo sapiens; 10 µM single dose, 48 h; 786-0 (Renal); read-out: Growth inhibition (%)
ACHN = experiment: NCI-60 antiproliferative screen (SRB); type: cell-based, human; conditions: Homo sapiens; 10 µM single dose, 48 h; ACHN (Renal); read-out: Growth inhibition (%)
SN12C = experiment: NCI-60 antiproliferative screen (SRB); type: cell-based, human; conditions: Homo sapiens; 10 µM single dose, 48 h; SN12C (Renal); read-out: Growth inhibition (%)
A549/ATCC = experiment: NCI-60 antiproliferative screen (SRB); type: cell-based, human; conditions: Homo sapiens; 10 µM single dose, 48 h; A549/ATCC (NSCLC); read-out: Growth inhibition (%)
HCT-15 = experiment: NCI-60 antiproliferative screen (SRB); type: cell-based, human; conditions: Homo sapiens; 10 µM single dose, 48 h; HCT-15 (Colon); read-out: Growth inhibition (%)
TK-10 = experiment: NCI-60 antiproliferative screen (SRB); type: cell-based, human; conditions: Homo sapiens; 10 µM single dose, 48 h; TK-10 (Renal); read-out: Growth inhibition (%)
SNB-19 = experiment: NCI-60 antiproliferative screen (SRB); type: cell-based, human; conditions: Homo sapiens; 10 µM single dose, 48 h; SNB-19 (CNS); read-out: Growth inhibition (%)
CCRF-CEM = experiment: NCI-60 antiproliferative screen (SRB); type: cell-based, human; conditions: Homo sapiens; 10 µM single dose, 48 h; CCRF-CEM (Leukemia); read-out: Growth inhibition (%)
K-562 = experiment: NCI-60 antiproliferative screen (SRB); type: cell-based, human; conditions: Homo sapiens, K562; 10 µM single dose, 48 h; K-562 (Leukemia); read-out: Growth inhibition (%)
IGROV1 = experiment: NCI-60 antiproliferative screen (SRB); type: cell-based, human; conditions: Homo sapiens, IGROV-1; 10 µM single dose, 48 h; IGROV1 (Ovarian); read-out: Growth inhibition (%)
HOP-92 = experiment: NCI-60 antiproliferative screen (SRB); type: cell-based, human; conditions: Homo sapiens; 10 µM single dose, 48 h; HOP-92 (NSCLC); read-out: Growth inhibition (%)
HL-60(TB) = experiment: NCI-60 antiproliferative screen (SRB); type: cell-based, human; conditions: Homo sapiens; 10 µM single dose, 48 h; HL-60(TB) (Leukemia); read-out: Growth inhibition (%)
SK-OV-3 = experiment: NCI-60 antiproliferative screen (SRB); type: cell-based, human; conditions: Homo sapiens; 10 µM single dose, 48 h; SK-OV-3 (Ovarian); read-out: Growth inhibition (%)
NCI-H23 = experiment: NCI-60 antiproliferative screen (SRB); type: cell-based, human; conditions: Homo sapiens; 10 µM single dose, 48 h; NCI-H23 (NSCLC); read-out: Growth inhibition (%)
HS 578T = experiment: NCI-60 antiproliferative screen (SRB); type: cell-based, human; conditions: Homo sapiens; 10 µM single dose, 48 h; HS 578T (Breast); read-out: Growth inhibition (%)
SF-268 = experiment: NCI-60 antiproliferative screen (SRB); type: cell-based, human; conditions: Homo sapiens; 10 µM single dose, 48 h; SF-268 (CNS); read-out: Growth inhibition (%)
HT29 = experiment: NCI-60 antiproliferative screen (SRB); type: cell-based, human; conditions: Homo sapiens, HT-29; 10 µM single dose, 48 h; HT29 (Colon); read-out: Growth inhibition (%)
SK-MEL-5 = experiment: NCI-60 antiproliferative screen (SRB); type: cell-based, human; conditions: Homo sapiens; 10 µM single dose, 48 h; SK-MEL-5 (Melanoma); read-out: Growth inhibition (%)
NCI-H322M = experiment: NCI-60 antiproliferative screen (SRB); type: cell-based, human; conditions: Homo sapiens; 10 µM single dose, 48 h; NCI-H322M (NSCLC); read-out: Growth inhibition (%)
NCI-H226 = experiment: NCI-60 antiproliferative screen (SRB); type: cell-based, human; conditions: Homo sapiens; 10 µM single dose, 48 h; NCI-H226 (NSCLC); read-out: Growth inhibition (%)
UACC-62 = experiment: NCI-60 antiproliferative screen (SRB); type: cell-based, human; conditions: Homo sapiens; 10 µM single dose, 48 h; UACC-62 (Melanoma); read-out: Growth inhibition (%)
[1] = system: NCI-60 human cancer cell lines; experiment: NCI-60 screen, full panel summary; type: cell-based; conditions: 10 µM single dose; for Mean Growth Percent: all NCI-60 cell lines; for inhibition at 10 µM: Homo sapiens, read-out: Range of Growth Inhibition on All Cells
Method: In a comprehensive test, compounds were assayed at a single dose concentration (10^−5 M) in the full panel of NCI-60 cancer cell lines.

BT-549 = experiment: NCI-60 antiproliferative screen (SRB); type: cell-based, human; conditions: Homo sapiens; 10 µM single dose, 48 h; BT-549 (Breast); read-out: Growth inhibition (%)
LOX IMVI = experiment: NCI-60 antiproliferative screen (SRB); type: cell-based, human; conditions: Homo sapiens; 10 µM single dose, 48 h; LOX IMVI (Melanoma); read-out: Growth inhibition (%)

Work on `O=C1Nc2cc(Cl)ccc2C1=Cc1ccc(OCc2ccccc2)cc1` (mixture of isomers) [Compound 5d, (E/Z)-3-[4-(Benzyloxy)benzylidene]-6-chloroindolin-2-one] yielded an inhibition at 10 µM (COLO 205) of -9.74%, an inhibition at 10 µM (MDA-MB-435) of 0.59% and an inhibition at 10 µM (NCI-H460) of -4.48%. It also gave an inhibition at 10 µM (T-47D) of 4.32%, a melting point of 259 to 261 °C and an inhibition at 10 µM (EKVX) of -0.31%. The inhibition at 10 µM (786-0) was -4.97%, the inhibition at 10 µM (ACHN) was 5.18% and the inhibition at 10 µM (SN12C) was 4.03%. For the same compound, the inhibition at 10 µM (A549/ATCC) was -4.59%, the inhibition at 10 µM (HCT-15) was 5% and the inhibition at 10 µM (TK-10) was -54%. For the same compound, the inhibition at 10 µM (SNB-19) was -3.09%, the inhibition at 10 µM (CCRF-CEM) was -2.18% and the inhibition at 10 µM (K-562) was 6.91%. The inhibition at 10 µM (IGROV1) was 8.41%, the inhibition at 10 µM (HOP-92) was -8.67% and the inhibition at 10 µM (HL-60(TB)) was -13.1%. For the same compound, the inhibition at 10 µM (SK-OV-3) was -3.01%, the inhibition at 10 µM (NCI-H23) was 5.71% and the inhibition at 10 µM (HS 578T) was 3.27%. For the same compound, the inhibition at 10 µM (SF-268) was 5.55%, the inhibition at 10 µM (HT29) was -5.27% and the inhibition at 10 µM (SK-MEL-5) was 2.83%. The inhibition at 10 µM (NCI-H322M) was 0.49%, the inhibition at 10 µM (NCI-H226) was 7.13% and the inhibition at 10 µM (UACC-62) was 4.09%. For the same compound, the “Positive Cytostatic Effect (cell lines with percent growth from 0 to 50 / total number of cell lines)” value [1] was 0/59, the “Positive Cytotoxic Effect (cell lines with percent growth of <0 / total number of cell lines)” value [1] was 0/59 and the “Sensitive/Total Cell Lines” value [1] was 0/59. For the same compound, the “antiproliferative activity (in words)” value [1] was “weak antiproliferative activity”, the “Mean Growth Percent” value [1] was 0.13 and the inhibition at 10 µM [1] was -54 to 38.4%. For the same compound, the inhibition at 10 µM (BT-549) was -1.23% and the inhibition at 10 µM (LOX IMVI) was 7.32%.
`O=C1Nc2ccc(Cl)cc2C1=Cc1ccc(OCc2ccccc2)cc1` (mixture of isomers) [Compound 5c, (E/Z)-3-[4-(Benzyloxy)benzylidene]-5-chloroindolin-2-one] gave an inhibition at 10 µM (COLO 205) of -6.62%, an inhibition at 10 µM (MDA-MB-435) of -3.79% and an inhibition at 10 µM (NCI-H460) of -3.66%. The inhibition at 10 µM (T-47D) was 4.11%, the melting point was 214 to 216 °C and the inhibition at 10 µM (EKVX) was 0.85%. The inhibition at 10 µM (786-0) was -2.86%, the inhibition at 10 µM (ACHN) was -1.45% and the inhibition at 10 µM (SN12C) was 0.7%. The inhibition at 10 µM (A549/ATCC) was -0.99%, the inhibition at 10 µM (HCT-15) was -4.25% and the inhibition at 10 µM (TK-10) was -12.7%. The inhibition at 10 µM (SNB-19) was -1.05%, the inhibition at 10 µM (CCRF-CEM) was 0.21% and the inhibition at 10 µM (K-562) was -0.34%. It also gave an inhibition at 10 µM (IGROV1) of -5.14%, an inhibition at 10 µM (HOP-92) of 9.75% and an inhibition at 10 µM (HL-60(TB)) of -3.22%. The inhibition at 10 µM (SK-OV-3) was -1.7%, the inhibition at 10 µM (NCI-H23) was -1.96% and the inhibition at 10 µM (HS 578T) was -2.25%. The inhibition at 10 µM (SF-268) was 3.26%, the inhibition at 10 µM (HT29) was -2.95% and the inhibition at 10 µM (SK-MEL-5) was 1.9%. For the same compound, the inhibition at 10 µM (NCI-H322M) was -0.07%, the inhibition at 10 µM (NCI-H226) was 11.1% and the inhibition at 10 µM (UACC-62) was 5.69%. The “Positive Cytostatic Effect (cell lines with percent growth from 0 to 50 / total number of cell lines)” value [1] was 0/59, the “Positive Cytotoxic Effect (cell lines with percent growth of <0 / total number of cell lines)” value [1] was 0/59 and the “Sensitive/Total Cell Lines” value [1] was 0/59. For the same compound, the “antiproliferative activity (in words)” value [1] was “weak antiproliferative activity”, the “Mean Growth Percent” value [1] was 0.10 and the inhibition at 10 µM [1] was -13 to 23.9%. It also gave an inhibition at 10 µM (BT-549) of -2.68% and an inhibition at 10 µM (LOX IMVI) of 0.14%.
Compound `O=C1Nc2ccccc2C1=Cc1ccc(OCc2ccccn2)cc1` (mixture of isomers) [Compound 5e, (E/Z)-3-[4-(Pyridin-2-ylmethoxy]benzylidene) indolin-2-one] has an inhibition at 10 µM (COLO 205) of -14.7%, an inhibition at 10 µM (MDA-MB-435) of 10.1% and an inhibition at 10 µM (NCI-H460) of 15%. For the same compound, the inhibition at 10 µM (T-47D) was 54.9%, the melting point was 221 to 224 °C and the inhibition at 10 µM (EKVX) was 47.3%. The inhibition at 10 µM (786-0) was 18%, the inhibition at 10 µM (ACHN) was 33.6% and the inhibition at 10 µM (SN12C) was 47.7%. For the same compound, the inhibition at 10 µM (A549/ATCC) was 29.2%, the inhibition at 10 µM (HCT-15) was 45.9% and the inhibition at 10 µM (TK-10) was 12.7%. For the same compound, the inhibition at 10 µM (SNB-19) was 39.3%, the inhibition at 10 µM (CCRF-CEM) was 57.7% and the inhibition at 10 µM (K-562) was 59.2%. The inhibition at 10 µM (IGROV1) was 36.8%, the inhibition at 10 µM (HOP-92) was 69% and the inhibition at 10 µM (HL-60(TB)) was 38.8%. The inhibition at 10 µM (SK-OV-3) was 16.8%, the inhibition at 10 µM (NCI-H23) was 21.4% and the inhibition at 10 µM (SF-268) was 27.3%. For the same compound, the inhibition at 10 µM (HT29) was 16.2%, the inhibition at 10 µM (SK-MEL-5) was 48.4% and the inhibition at 10 µM (NCI-H322M) was 29.5%. The inhibition at 10 µM (NCI-H226) was 40.8%, the inhibition at 10 µM (UACC-62) was 40.4% and the “Positive Cytostatic Effect (cell lines with percent growth from 0 to 50 / total number of cell lines)” value [1] was 11/56. For the same compound, the “Positive Cytotoxic Effect (cell lines with percent growth of <0 / total number of cell lines)” value [1] was 0/56, the “Sensitive/Total Cell Lines” value [1] was 11/56 and the “The Most Sensitive Cell Line” value [1] was “HOP-92”. For the same compound, the “Mean Growth Percent” value [1] was 33.37 and the inhibition at 10 µM (BT-549) was 41.2%.
